Data as given in publication PMC9114115, “Property space mapping of Pseudomonas aeruginosa permeability to small molecules” (Scientific Reports, 2022).
Several values for one entry are separate records, joined by “and”; a condition that tells them apart may be missing. Equal entries are not always repeated. Structures can show the parent of a compound that is named as a salt. Where two headings read alike, the source gives them in different places.

Key:
[1] = tested on: P. aeruginosa PAO1-Pore cells; assay: LC–MS quantification of intracellular accumulation, PAO1-Pore; conditions: 10-80 µM; for Concentration slopes of accumulation, PAO1-Pore_1 min: 1 min incubation; for Concentration slopes of accumulation, PAO1-Pore_40 min: 40 min incubation;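 for all read-outs here: slope of accumulation versus external concentration fitted as a line through zero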
Experimental: (§1) PAO1-Pore and PΔ3-Pore were grown at 37 °C overnight with shaking at 225 rpm in 50 mM MOPS-M9 (pH 7.2) Minimal Medium supplemented with 1% glycerol[42],[43].
(§2) The next day, cells were sub-cultured (1.5:100) in fresh MOPS-M9 medium and grown for 16 h. The cultures were then split into two flasks and one of them was induced with 0.1 mM IPTG. Cells incubated for additional 4 h until OD600 reached ~ 1.0 and harvested by centrifugation at 3,275xg for 20 min in RT, washed and concentrated 10X in the spent medium. Assays were performed in 96-well plates in a final volume of […]. Cells were incubated with 10, 20, 40, 80 µM of compounds and after 1- and 40-min incubation at RT, 100 µL cell aliquots were collected by vacuum filtration onto 1.0 µm Glass Fiber Type B filters. For no-cell controls, compounds were diluted to 10, 20, 40, 80 µM final concentration in the same medium, incubated for 1 min and 40 min and filtered onto the same plates. The cell loaded and cell-free filters were dried, removed from plates and placed into 100% methanol at -80 °C for at least 10 min. Filter-bound material was extracted by water bath sonication for 1 min. Cell and filter debris were separated by ultracentrifugation at 45,000 rpm (TLA55 rotor, Beckman) for 8 min at 16 °C and the pellet re-extracted with 80% methanol in water by sonication for 15 min followed by ultracentrifugation at the same conditions. Supernatants from two extractions were combined. For the compound quantification, 5 µL of solution was analyzed in triplicate.
(§3) Calibration curves for MS analyses of compounds were generated in the same experiment by mixing compound at increasing concentrations with the sonicated PAO1 cell extracts. […] Azithromycin was used as a positive control in all experiments.
(§4) Samples were processed in positive ion mode. An Eclipse plus C18 Rapid Resolution HD column (1.8 μm, 2.1 × 50 mm, Agilent, USA) was used for separation. The flow rate was 0.6 mL/min using the following gradient: 0 to 1 min (0- 20% ACN), 1 to 4 min (20- 80% ACN), 4 to 5.1 min (80–100% ACN), 5.1 to 6.30 (100% ACN). Solvents contained 0.1% formic acid to promote positive ion formation in the electrospray. […] Data were analyzed using Agilent Masshunter workstation quantitative analysis v. B.10 software.

[2] = tested on: P. aeruginosa PΔ3 cells; conditions: 10-80 µM; for Concentration slopes of accumulation, PΔ3_1 min: 1 min incubation; for Concentration slopes of accumulation, PΔ3_40 min: 40 min incubation;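 for all read-outs here: slope of accumulation versus external concentration fitted as a line through zero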
Experimental: as §1, §2, §3, §4

[3] = tested on: P. aeruginosa PΔ3-Pore cells; assay: LC–MS quantification of intracellular accumulation, PΔ3-Pore; conditions: 10-80 µM; for Concentration slopes of accumulation, PΔ3-Pore_1 min: 1 min incubation; for Concentration slopes of accumulation, PΔ3-Pore_40min: 40 min incubation;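 for all read-outs here: slope of accumulation versus external concentration fitted as a line through zero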
Experimental: as §1, §2, §3, §4

[4] = tested on: P. aeruginosa PAO1 cells; assay: LC–MS quantification of intracellular accumulation, PAO1; conditions: 10-80 µM; for Concentration slopes of accumulation, PAO1_1 min: 1 min incubation; for Concentration slopes of accumulation, PAO1_40 min: 40 min incubation;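 for all read-outs here: slope of accumulation versus external concentration fitted as a line through zero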
Experimental: as §1, §2, §3, §4

[5] = tested on: P. aeruginosa; conditions: for Cluster of the identified "good" permeators: sheet "Good" permeators, all listed compounds are good permeators
Experimental: The measured levels of compound accumulation were analyzed using machine learning to determine which features of the compounds are most important for enabling their cellular accumulation and to determine their optimal values. […] To accentuate the permeability aspect, the accumulation slopes in efflux-deficient and hyperporinated strains were normalized to those in the parental PAO1 strain.
To help visualize the data, we performed a principal component (PC) decomposition of the data.

[6] = tested on: P. aeruginosa PΔ3-Pore; assay: MIC by two-fold dilution, barrierless PΔ3-Pore; assay type: cell-based, Pseudomonas aeruginosa; conditions: for MIC: Pseudomonas aeruginosa, read-out: MICs, P∆3-Pore, MOPS-M9 medium; for MICs: P∆3-Pore
Experimental: (§5) In all experiments, P. aeruginosa PAO1-Pore (PAO1 attTn7::PLAC-fhuA) and PΔ3-Pore (ΔmexAB ΔmexCD ΔmexXY attTn7::PLAC-fhuA) strains were used[29]. Strains were routinely grown in Luria–Bertani (LB) or MOPS-M9 medium at 37 °C with aeration. MICs shown in Tables 1 and 2 were determined by a two-fold dilution method in LB broth and MOPS-M9 medium, respectively, following the previously described protocol.

[7] = tested on: P. aeruginosa PAO1; assay: MIC by two-fold dilution, wild type PAO1; assay type: cell-based, Pseudomonas aeruginosa; conditions: PAO1, MOPS-M9 medium, read-out: MICs
Experimental: as §5

[8] = tested on: P. aeruginosa PΔ3; assay: microbe, parasite or virus in culture; assay type: cell-based, Pseudomonas aeruginosa; conditions: for MIC: Pseudomonas aeruginosa, read-out: MICs; for MICs: P∆3, MOPS-M9 medium
Experimental: as §5

[9] = tested on: P. aeruginosa PAO1-Pore; assay: MIC by two-fold dilution, hyperporinated PAO1-Pore; assay type: cell-based, Pseudomonas aeruginosa; conditions: for MICs: PAO1-Pore; for MIC: Pseudomonas aeruginosa, PAO1, read-out: MICs
Experimental: as §5

| SMILES | Concentration slopes of accumulation, PAO1-Pore_1 min [1] | Concentration slopes of accumulation, PAO1-Pore_40 min [1] | Concentration slopes of accumulation, PΔ3_1 min [2] | Concentration slopes of accumulation, PΔ3_40 min [2] | Concentration slopes of accumulation, PΔ3-Pore_1 min [3] | Concentration slopes of accumulation, PΔ3-Pore_40min [3] | Concentration slopes of accumulation, PAO1_1 min [4] | Concentration slopes of accumulation, PAO1_40 min [4] | Cluster of the identified "good" permeators [5] | MIC [6] | MICs ([6]; LB broth, Table S2) | MIC ([7]; Pseudomonas aeruginosa) | MIC [8] | MICs ([9]; LB broth, Table S2) | MIC [9] | also measured |
| --- | --- | --- | --- | --- | --- | --- | --- | --- | --- | --- | --- | --- | --- | --- | --- | --- |
| N[C@@H](CC(=O)N1CCn2c(nnc2C(F)(F)F)C1)Cc1cc(F)c(F)cc1F [OU-0000833, Sitagliptin Monophosphate Monohydrate] | 4.16 | 4.84 | 4.36 | 4.18 | 4.24 | 4.28 | 7.55 | 5.67 | 1 |  |  |  |  |  |  | permeator classification [5]: good permeators |
| CCn1cc(C(=O)O)c(=O)c2cc(F)c(N3CCNCC3)cc21 [OU-0000789, Norfloxacin] | 31.44 | 54.56 | 15.28 | 26.08 | 25.07 | 33.05 | 37.81 | 32.76 | 3 | 0.1 µM and 0.03 µg/mL | 0.0156 | 1.25 µM and 0.4 µg/mL | 0.625 µM and 0.2 µg/mL | 1 | 0.2 µM and 0.06 µg/mL |  |
| CN1C[C@H](C(=O)N[C@]2(C)O[C@@]3(O)[C@@H]4CCCN4C(=O)[C@H](Cc4ccccc4)N3C2=O)C=C2c3cccc4[nH]cc(c34)C[C@H]21 [OU-0000834, Ergotamine Tartrate] | 17.94 | 20.50 | 8.34 | 13.59 | 20.02 | 15.58 | 15.91 | 12.24 | 3 |  |  |  |  |  |  | permeator classification [5]: good permeators |
| COc1c(N2CCNC(C)C2)c(F)cc2c(=O)c(C(=O)O)cn(C3CC3)c12 (stereo not drawn) [OU-0000623, GATIFLOXACIN] | 2.29 | 4.14 | 1.11 | 4.13 | 1.90 | 5.45 | 1.47 | 6.10 | 1 | 0.031 µM and 0.01 µg/mL | 0.0039 | 2 µM and 0.8 µg/mL | 0.5 µM and 0.2 µg/mL | 0.25 | 0.0625 µM and 0.02 µg/mL |  |
| Cc1oc(=O)oc1CN1CCN(c2cc3c(cc2F)c(=O)c(C(=O)O)c2n3C(C)S2)CC1 (stereo not drawn) [OU-0000631, PRULIFLOXACIN] | 7.49 | 9.31 | 7.35 | 8.36 | 5.06 | 5.20 | 10.64 | 11.45 | 3 | 0.004 µM and 0.002 µg/mL | 0.0039 | 0.5 µM and 0.23 µg/mL | 0.125 µM and 0.06 µg/mL | 0.0625 | 0.016 µM and 0.01 µg/mL |  |
| C[C@@H]1CN(c2c(F)c(N)c3c(=O)c(C(=O)O)cn(C4CC4)c3c2F)C[C@H](C)N1 [OU-0000617, SPARFLOXACIN] | 8.17 | 10.82 | 5.48 | 4.11 | 4.64 | 10.98 | 4.89 | 5.25 | 4 | 0.016 µM and 0.01 µg/mL | 0.0039 | 2 µM and 0.8 µg/mL | 0.5 µM and 0.2 µg/mL | 0.25 | 0.031 µM and 0.01 µg/mL |  |
| CS(=O)(=O)O.C[C@H]1COc2c(C3(N)CC3)c(F)cc3c(=O)c(C(=O)O)cn1c23 [OU-0000627, PAZUFLOXACIN MESYLATE] | 5.79 | 7.45 | 3.81 | 5.01 | 5.45 | 5.72 |  |  | 1 |  | 0.0156 |  |  | 0.25 |  | MICs ([6]; MOPS-M9 medium): 0.031 μM and 0.01 mg/L; MIC [7]: 0.5 µM; MICs [8]: 0.05 mg/L; MICs ([8]; listed as Pazufloxacin mesylate): 0.125 µM; MICs ([9]; MOPS-M9 medium): 0.03 mg/L; MICs ([9]; MOPS-M9 medium, listed as Pazufloxacin mesylate): 0.0625 µM |
| O=C1N[C@@H](Cc2c[nH]c3ccccc23)C(=O)N2CCC[C@@H]12 [OU-0032512] | 3.51 | 2.49 | 2.98 | 3.06 | 2.90 | 2.97 |  |  | 1 |  |  |  |  |  |  |  |
| CC1CN=C(c2ccc(NC(=O)Nc3ccc(C4=NCCN4)cc3)cc2)N1.Cl (stereo not drawn) [OU-0001395] | 2.72 | 7.34 | 8.86 | 5.05 | 1.38 | 4.42 | 3.79 | 6.44 | 1 |  |  |  |  |  |  |  |
| CC(C)(C)OC(=O)N1[C@H](CCC2CCCCC2)CNC(=O)[C@@H]1Cc1cc(F)cc(F)c1 [OU-0032510] | 37.26 | 28.02 | 30.64 | 29.44 | 31.28 | 28.27 | 36.86 | 31.85 | 3 |  |  |  |  |  |  |  |
